Changes are numbered by the printed parent chain. Values joined by “and” are separate entries in the source; they are usually repeats but may differ in a detail not shown here. Identical values can stand only once. Square brackets hold non-standard residues; d marks the D form. Peptide text beside a SMILES is read from it. * marks the point of attachment. FITC = O=C1OC2(c3ccc(O)cc3Oc3cc(O)ccc32)c2ccc(NC(=S)*)cc21; Nle = CCCC[C@H](N)C(=O)O; For = O=C*
How the values were obtained:
[1] = biological target: T1, FPR1 haplotype CH4 (Homo sapiens, UniProt P21462, I11T); test: FACScan saturation binding of fNLFNYK–FITC, CH4 cells; details: CHO-Gα16 cells, 4°C, 1 h
T1 construct: Vectors including FPR1 ORFs were transfected into CHO-Gα16 cells; expressed in transfected cells
T1 sequence (P21462 1-350 I11T): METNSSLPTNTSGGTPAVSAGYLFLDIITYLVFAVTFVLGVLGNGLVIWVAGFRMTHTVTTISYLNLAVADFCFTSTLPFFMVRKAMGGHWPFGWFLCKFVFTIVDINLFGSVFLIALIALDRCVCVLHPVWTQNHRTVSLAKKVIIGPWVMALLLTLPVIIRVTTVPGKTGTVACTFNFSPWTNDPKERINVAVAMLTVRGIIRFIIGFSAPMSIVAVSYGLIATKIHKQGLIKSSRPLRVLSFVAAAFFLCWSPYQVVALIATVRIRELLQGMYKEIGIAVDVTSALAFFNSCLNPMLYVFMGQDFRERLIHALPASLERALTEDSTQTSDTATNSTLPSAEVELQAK
Procedure: (§1) Stable clones expressing FPR1 haplotypes were selected after 10 days of culture under the selection of 600 μg/ml G418 and identified by FACScan analysis after binding of 20 nM of the fluorescent ligand fNLFNYK–FITC to the CHO cell transfectants for 45 min at 4°C.
(§2) CHO cells were added to 3 mM KCl, 100 mM NaCl, 10 mM sodium phosphate, 1 mM Mg^2+ and 1 mM Ca^2+, pH 7.4, containing 5% fetal bovine serum and incubated at 4°C for 1 h with various concentrations of fNLFNYK–FITC. The mean fluorescence of the cells was determined after subtracting the readout of cells without fNLFNYK–FITC. The results were analysed by non-linear least squares analysis to determine Kd and Bmax values. […] Data from at least two different experiments in duplicate were analysed.

[2] = test system: FPR1 haplotype CH7; test: FACScan saturation binding of fNLFNYK–FITC, CH7 cells; parameters: species or system human; details: CHO-Gα16 cells, 4°C, 1 h
Procedure: as §1, §2

[3] = biological target: T2, FPR1 haplotype CH12 (Homo sapiens, UniProt P21462, V101L); test: FACScan saturation binding of fNLFNYK–FITC, CH12 cells; details: CHO-Gα16 cells, 4°C, 1 h
T2 construct: expressed in transfected cells
T2 sequence (P21462 1-350 V101L): T1 sequence (P21462 1-350 I11T) with T11I, V101L
Procedure: as §1, §2

[4] = biological target: T3, FPR1 haplotype CH1 (Homo sapiens, UniProt P21462, E346A/I11T/V101L); test: FACScan saturation binding of fNLFNYK–FITC, CH1 cells; details: CHO-Gα16 cells, 4°C, 1 h
T3 construct: Vectors including FPR1 ORFs were transfected into CHO-Gα16 cells; expressed in transfected cells
T3 sequence (P21462 1-350 I11T/V101L/E346A): T1 sequence (P21462 1-350 I11T) with V101L, E346A
Procedure: as §1, §2

[5] = test system: FPR1 haplotypes; test: FACScan binding of fNLFNYK–FITC, different FPR1 haplotypes; parameters: species or system human; details: different FPR1 haplotypes CH1–CH12
Procedure: (§3) Transfection of FPR1 haplotype cDNAs into CHO-Gα16 cells was carried out with the Gene Pulser Xcell Electroporation System from Bio-Rad Laboratories. […] Vectors containing the ORFs of the human FPR1 gene (8 μg in a volume of 8 μl) were added to the cells. Following a 280 V and 20 ms pulse (squarewave), the cells were immediately returned to 10 ml of culture medium and incubated for 24 h. Stable clones expressing FPR1 haplotypes were selected after 10 days of culture under the selection of 600 μg/ml G418 and identified by FACScan analysis after binding of 20 nM of the fluorescent ligand fNLFNYK–FITC to the CHO cell transfectants for 45 min at 4°C.
as §2

[6] = biological target: T4, FPR1 haplotype CH9 (Homo sapiens, UniProt P21462, E346A/I11T/R190W/V101L); test: FACScan saturation binding of fNLFNYK–FITC, CH9 cells; details: CHO-Gα16 cells, 4°C, 1 h
T4 construct: expressed in transfected cells
T4 sequence (P21462 1-350 I11T/V101L/R190W/E346A): T1 sequence (P21462 1-350 I11T) with V101L, R190W, E346A
Procedure: as §1, §2

[7] = biological target: T5, FPR1 haplotype CH2 (Homo sapiens, UniProt P21462, E346A/I11T); test: FACScan saturation binding of fNLFNYK–FITC, CH2 cells; details: CHO-Gα16 cells, 4°C, 1 h
T5 construct: Vectors including FPR1 ORFs were transfected into CHO-Gα16 cells; expressed in transfected cells
T5 sequence (P21462 1-350 I11T/E346A): T1 sequence (P21462 1-350 I11T) with E346A
Procedure: as §1, §2

[8] = biological target: T6, FPR1 haplotype CH6 (Homo sapiens, UniProt P21462, E346A/I11T/R190W); test: FACScan saturation binding of fNLFNYK–FITC, CH6 cells; details: CHO-Gα16 cells, 4°C, 1 h
T6 construct: Vectors including FPR1 ORFs were transfected into CHO-Gα16 cells; expressed in transfected cells
T6 sequence (P21462 1-350 I11T/R190W/E346A): T1 sequence (P21462 1-350 I11T) with R190W, E346A
Procedure: as §1, §2

[9] = biological target: T7, FPR1 haplotype CH5 (Homo sapiens, UniProt P21462, E346A/I11T/N192K/V101L); test: FACScan saturation binding of fNLFNYK–FITC, CH5 cells; details: CHO-Gα16 cells, 4°C, 1 h
T7 construct: Vectors including FPR1 ORFs were transfected into CHO-Gα16 cells; expressed in transfected cells
T7 sequence (P21462 1-350 I11T/V101L/N192K/E346A): T1 sequence (P21462 1-350 I11T) with V101L, N192K, E346A
Procedure: as §1, §2

[10] = biological target: T8, FPR1 haplotype CH3 (Homo sapiens, UniProt P21462, E346A/I11T/N192K); test: FACScan saturation binding of fNLFNYK–FITC, CH3 cells; details: CHO-Gα16 cells, 4°C, 1 h
T8 construct: Vectors including FPR1 ORFs were transfected into CHO-Gα16 cells; expressed in transfected cells
T8 sequence (P21462 1-350 I11T/N192K/E346A): T1 sequence (P21462 1-350 I11T) with N192K, E346A
Procedure: as §1, §2

[11] = test system: FPR1 haplotype CH10; test: FACScan saturation binding of fNLFNYK–FITC, CH10 cells; parameters: species or system human; details: CHO-Gα16 cells, 4°C, 1 h
Procedure: as §1, §2

[12] = biological target: T9, FPR1 haplotype CH11 (Homo sapiens, UniProt P21462); test: FACScan saturation binding of fNLFNYK–FITC, CH11 cells; details: CHO-Gα16 cells, 4°C, 1 h
T9 construct: expressed in transfected cells
T9 sequence (P21462 1-350): T1 sequence (P21462 1-350 I11T) with T11I
Procedure: as §3, §2

[13] = biological target: T10, FPR1 haplotype CH8 (Homo sapiens, UniProt P21462, I11T/V101L); test: FACScan saturation binding of fNLFNYK–FITC, CH8 cells; details: CHO-Gα16 cells, 4°C, 1 h
T10 construct: Vectors including FPR1 ORFs were transfected into CHO-Gα16 cells; expressed in transfected cells
T10 sequence (P21462 1-350 I11T/V101L): T1 sequence (P21462 1-350 I11T) with V101L
Procedure: as §1, §2

[14] = test system: CHO-Gα16-FPR1 cells; test: fMLF-induced ERK1/2 phosphorylation, CHO-Gα16-FPR1 cells; assay type: cell-based, human; details: fMLF 10 nM, 5 min, Western blot
Procedure: Activation of the p44/p42 MAPKs (ERK1/2) was determined as described previously [12] with modest modifications. Briefly, cells were cultured in 24-well plates at 5×10^5 cells/well for 24 h and serum starved for 2 h. They were pretreated with the indicated amounts of cyclosporins for 5 min before fMLF (10 nM) stimulation in HBSS/BSA. […] Samples were transferred to microcentrifuge tubes and sonicated twice for 5 s each to disperse DNA contents. After boiling, samples were analysed by SDS/PAGE and Western blotting using anti-ERK1/2 and anti-phospho-ERK1/2 antibodies at a 1:1000 dilution. Horseradish peroxidase-conjugated anti-rabbit antibody (1:3000 dilution) was used as the secondary antibody. The resulting immunocomplex was visualized using the SuperSignal West Pico chemiluminescence kit (Pierce Biotechnology) according to the manufacturer's instructions. The relative intensities of the bands from the PVDF membrane (Millipore) were quantified using the ChemDoc MP System (Bio-Rad) and Image-Pro Plus software (MediaCybernetics).

[15] = test system: CHO-Gα16-FPR1 haplotype-expressing cells; test: Calcium mobilization by fMLF, four cell lines; assay type: cell-based, human; details: CH1, CH2, CH3 and CH5 cells; different concentrations of fMLF
Procedure: A calcium mobilization assay was performed as described previously with minor modifications [33]. Briefly, CHO-Gα16-FPR1 cells were plated on to 96-well plates at a density of 15000 cells in 100 μl of medium per well and incubated for 24 h. Cells were loaded with 5 μM Fluo-4/AM in HBSS (Hanks balanced saline solution) supplemented with 2.5 mM probenecid for 45 min and then washed twice with HBSS.

Compound	Bmax [1]	Kd ([2]; CH7 (T11/V101/R190/K192/E346), pH 7.4, FACScan, at least two experiments in duplicate) [nM]	Bmax ([2]; CH7, FACScan)	Bmax [3]	Bmax [4]	receptor affinity of fNLFNYK–FITC (in words) [5]	Bmax [6]	Bmax [7]	Bmax [8]	Bmax [9]	Bmax [10]	Kd ([11]; CH10 (T11/L101/W190/N192/E346), pH 7.4, FACScan, at least two experiments in duplicate) [nM]	Bmax ([11]; CH10, FACScan)	Bmax [12]	Bmax [13]	phosphorylation of ERK1/2 (in words) [14]	calcium mobilization (in words) [15]
CCCC[C@H](NC=O)C(=O)N[C@@H](CC(C)C)C(=O)N[C@@H](Cc1ccccc1)C(=O)N[C@@H](CCCC)C(=O)N[C@@H](Cc1ccc(O)cc1)C(=O)N[C@@H](CCCCNC(=S)Nc1ccc2c(c1)C(=O)OC21c2ccc(O)cc2Oc2cc(O)ccc21)C(=O)O [fNLFNYK–FITC, N-formyl-Nle-Leu-Phe-Nle-Tyr-Lys–FITC] (For-[Nle]LF[Nle]YK(FITC)-OH; N-terminus and C-terminus assumed)	33860 and 33860±4977	1.7 ± 0.3	60688±10388	65059 and 65059±3570	48336±4553	varied moderately	39009±6672	47657±9098	34093±693	42575±4902	59135±4185	2.4 ± 0.3	41751±615	37713±5841	36362±353		
N-formyl-methionyl-leucyl-phenylalanine [fMLF]																significant increase	elicited calcium mobilization dose-dependently
